Legend:
[1] = test system: LPS-induced NO release in BV2 cells; experiment: Inhibition of LPS-induced NO release in BV2 cells; type: cell-based; settings: Mus musculus, BV-2; for inhibition at 1 µM / inhibition at 3 µM: pretreated 1 h, then LPS 1 μg/mL for 24 h, BV2 cells; for IC50: BV2 cells, 0.3, 1.0, 3.0 μM, LPS 1 μg/mL 24 h, mean ± SD, n = 3, read-out: IC50 to inhibit LPS-induced NO release
Experimental: (§1) The BV2 microglial cells were purchased from the China Center for Type Culture Collection, CCTCC (Wuhan, Hubei). BV2 microglia cells were incubated in DMEM media supplemented with 10% (v/v) FBS, 100 U/mL penicillin G and […] streptomycin at 37 °C with 5% CO2.
Nitrite, a stable product of nitric oxide, was used to assess NO production. To study the effects of the compounds on NO production, BV2 microglia cells in the logarithmic phase were plated at 1 × 10^5 cells/well in a 24-well microplate and incubated in DMEM medium (10% FBS) overnight. The cells were pretreated with various concentrations of the test compounds for 1 h and further co-cultured with 1 μg/mL LPS and 5% CO2 for 24 h in a 37 °C incubator; then, the supernatant was taken and stored at −20 °C for NO detection. The target compound and LPS were configured with DMEM medium (2% FBS). The determination of NO was carried out according to the instructions. Unpretreated and unstimulated BV2 microglia cells were conducted as the blank control group. The absorbance value was determined at 540 nm, and the corresponding NO content was calculated by using the standard curve. The NO inhibitory rate of the various concentrations of agents in BV2 cells was calculated as per the following formula:Inhibition rate (%) = (LPS(NO concentration) − sample(NO concentration))/(LPS(NO concentration) − negative control(NO concentration)) × 100%.

[2] = MTT cell viability assay in BV2 microglia cells; type: cell-based; settings: mouse, mean ± SD, n = 3
Experimental: as §1
Cell viability assays were evaluated using a 3-(4,5-dimethylthiazol-2-yl)-2,5-diphenyltetrazolium bromide (MTT) assay. BV2 microglia cells were seeded in 96-well plates at a density of 1.6 × 10^5 cells/well in complete medium and incubated for 24 h. Then, the culture medium was sucked and discarded, and sterile PBS was added for washing, and then PBS was removed. Then the cells were treated with different concentrations of target compounds for 24 h. An amount equal to 100 μL of MTT was added to each well and the cells were further incubated for 2–4 h. An amount equal to 150 μL of DMSO was added into a 96-well plate and vibrated with micro-oscillator for 10 min. The optical density (A) was measured at […] on a microplate reader. The inhibitory rate of the various concentrations of agents in BV2 cells was calculated using the following formula:Cell viability (%) = [A492 (sample) − A492 (blank)]/[A492 (control) − A492 (blank)] × 100%

Row | SMILES | inhibition at 1 µM [1] [%] | viability at 24 h, 1 µM [2] [%] | viability at 24 h, 3 µM [2] [%] | viability at 24 h, 10 µM [2] [%] | melting point [°C] | inhibition at 3 µM [1] [%] | IC50 [1] [nM]
1 | O=C(/C=C/CCc1ccc(O)cc1)/C=C/c1ccc(O)cc1 [CU-1, (1E,4E)-1,7-bis(4-hydroxyphenyl)-1,4-heptadien-3-one] | 0 | 88.07 ± 0.19 | 49.84 ± 0.27 | 23.7 ± 0.38 | – | – | –
2 | COc1ccc(/C=C/C(=O)/C=C/CCc2ccc(OC)c(OC)c2)cc1OC [CU-2, (1E,4E)-1,7-bis(3,4-dimethoxyphenyl)-1,4-heptadien-3-one] | 0 | 76.92 ± 0.19 | 49.2 ± 0.92 | 10.6 ± 1.13 | 97 to 99 | – | –
3 | COc1ccc(/C=C/C(=O)/C=C/CCc2ccccc2)cc1 [CU-3, (1E,4E)-7-phenyl-1-(4-methoxyphenyl)-1,4-heptadien-3-one] | – | 106.7 ± 0.14 | 101.55 ± 0.01 | 98.5 ± 0.01 | 48 to 50 | 35.2 | –
4 | COc1cc(/C=C/C(=O)/C=C/CCc2ccccc2)cc(OC)c1OC [CU-4, (1E,4E)-7-phenyl-1-(3,4,5-trimethoxyphenyl)-1,4-heptadien-3-one] | 3.1 | 107.23 ± 0.09 | 73.92 ± 0.3 | 16.6 ± 0.45 | 95 to 97 | – | –
5 | O=C(/C=C/CCc1ccccc1)/C=C/c1ccccc1O [CU-5, (1E,4E)-1-(2-hydroxyphenyl)-7-phenyl-1,4-heptadien-3-one] | 0 | 95.68 ± 0.11 | 77.39 ± 0.3 | 15.9 ± 0.61 | 134 to 136 | – | –
6 | O=C(/C=C/CCc1ccccc1)/C=C/c1cccc(O)c1 [CU-6, (1E,4E)-1-(3-hydroxyphenyl)-7-phenyl-1,4-heptadien-3-one] | – | 106.85 ± 0.1 | 100.07 ± 0.01 | 101.56 ± 0.03 | 94 to 96 | 22.1 | –
7 | O=C(/C=C/CCc1ccccc1)/C=C/c1ccc(O)cc1 [CU-7, (1E,4E)-1-(4-hydroxyphenyl)-7-phenyl-1,4-heptadien-3-one] | 0 | 93.46 ± 0.35 | 52.8 ± 0.5 | 14.3 ± 0.7 | 121 to 123 | – | –
8 | COc1ccc(/C=C/C(=O)/C=C/CCc2ccccc2)cc1O [CU-8, (1E,4E)-1-(3-hydroxy-4-methoxyphenyl)-7-phenyl-1,4-heptadien-3-one] | – | 101.18 ± 0.04 | 97.4 ± 0.07 | 18.2 ± 0.86 | 72 to 74 | 18.8 | –
9 | COc1cc(/C=C/C(=O)/C=C/CCc2ccccc2)ccc1O [CU-9, (1E,4E)-1-(4-hydroxy-3-methoxyphenyl)-7-phenyl-1,4-heptadien-3-one] | – | 99.38 ± 0.01 | 94.65 ± 0.07 | 14.8 ± 0.75 | 114 to 116 | 7.52 | –
10 | O=C(/C=C/CCc1ccccc1)/C=C/c1ccc(Cl)cc1 [CU-10, (1E,4E)-1-(4-chlorophenyl)-7-phenyl-1,4-heptadien-3-one] | – | 95.54 ± 0.03 | 95.27 ± 0.16 | 48.7 ± 2.93 | 70 to 72 | 0 | –
11 | Cc1ccc(CC/C=C/C(=O)/C=C/c2ccc(O)cc2)cc1 [CU-11, (1E,4E)-1-(4-hydroxyphenyl)-7-(p-tolyl)-1,4-heptadien-3-one] | – | 99.17 ± 0.01 | 91.61 ± 0.09 | 11.2 ± 0.56 | 132 to 134 | 0 | –
12 | COc1cc(CC/C=C/C(=O)/C=C/c2ccc(O)cc2)ccc1O [CU-12, (1E,4E)-7-(4-hydroxy-3-methoxyphenyl)-1-(4-hydroxyphenyl)-1,4-heptadien-3-one] | 0 | 92.03 ± 0.29 | 75.55 ± 0.17 | 12.7 ± 0.59 | – | – | –
13 | COc1ccc(CC/C=C/C(=O)/C=C/c2ccc(O)cc2)cc1 [CU-13, (1E,4E)-1-(4-hydroxyphenyl)-7-(4-methoxyphenyl)-1,4-heptadien-3-one] | – | 109.5 ± 0.27 | 91.4 ± 0.32 | 28.5 ± 1.3 | 136 to 138 | 0 | –
14 | COc1ccc(/C=C/C(=O)/C=C/CCc2ccc(OC)cc2)cc1 [CU-14, (1E,4E)-1,7-bis(4-methoxyphenyl)-1,4-heptadien-3-one] | – | 97.96 ± 0.01 | 97.44 ± 0.03 | 18.06 ± 0.1 | 65 to 67 | 49.7 | 2430 ± 450
15 | O=C(/C=C/CCc1ccccc1)/C=C/c1ccccc1 [CU-15, (1E,4E)-1,7-diphenyl-1,4-heptadien-3-one] | – | 104.99 ± 0.03 | 103.11 ± 0.03 | 84.19 ± 0.21 | – | 13.7 | –
16 | Cc1ccc(/C=C/C(=O)/C=C/CCc2ccccc2)cc1 [CU-16, (1E,4E)-7-phenyl-1-(p-tolyl)-1,4-heptadien-3-one] | – | 95 ± 0.08 | 88.57 ± 0.28 | 33.3 ± 1.2 | 46 to 48 | 15.4 | –
17 | COc1cc(/C=C/C(=O)/C=C/CCc2ccc(O)cc2)ccc1O [CU-17, (1E,4E)-1-(4-hydroxy-3-methoxyphenyl)-7-(4-hydroxyphenyl)-1,4-heptadien-3-one] | 0 | 99.36 ± 0.01 | 80.72 ± 0.2 | 32.4 ± 0.67 | 141 to 143 | – | –
18 | COc1ccc(/C=C/C(=O)/C=C/CCc2ccc(O)cc2)cc1O [CU-18, (1E,4E)-1-(3-hydroxy-4-methoxyphenyl)-7-(4-hydroxyphenyl)-1,4-heptadien-3-one] | 2.15 | 96.14 ± 0.03 | 46.6 ± 1.16 | 8.63 ± 0.373 | 152 to 154 | – | –
19 | COc1cc(/C=C/C(=O)/C=C/CCc2ccc(O)c(OC)c2)ccc1O [CU-20, (1E,4E)-1,7-bis(4-hydroxy-3-methoxyphenyl)-1,4-heptadien-3-one] | 16.9 | 97.31 ± 0.03 | 51.8 ± 0.6 | 12.2 ± 0.21 | 103 to 105 | – | –
20 | Cc1ccc(CC/C=C/C(=O)/C=C/c2ccccc2)cc1 [CU-22, (1E,4E)-1-phenyl-7-(p-tolyl)-1,4-heptadien-3-one] | – | 95.14 ± 0.05 | 88.76 ± 0.06 | 46.6 ± 0.59 | 62 to 64 | 48.2 | > 3000
21 | COc1ccc(CC/C=C/C(=O)/C=C/c2ccccc2)cc1OC [CU-23, (1E,4E)-7-(3,4-dimethoxyphenyl)-1-phenyl-1,4-heptadien-3-one] | – | 106.5 ± 0.14 | 100.85 ± 0.01 | 12.3 ± 0.84 | – | 31.4 | –
22 | O=C(/C=C/CCc1cccc(O)c1)/C=C/c1ccccc1 [CU-24, (1E,4E)-7-(3-hydroxyphenyl)-1-phenyl-1,4-heptadien-3-one] | – | 103.49 ± 0.02 | 91.48 ± 0.07 | 23.17 ± 0.09 | 70 to 72 | 0 | –
23 | O=C(/C=C/CCc1ccc(O)cc1)/C=C/c1ccccc1 [CU-25, (1E,4E)-7-(4-hydroxyphenyl)-1-phenyl-1,4-heptadien-3-one] | – | 128.6 ± 0.14 | 96.93 ± 0.01 | 20.3 ± 0.59 | 75 to 77 | 0 | –
24 | COc1cc(CC/C=C/C(=O)/C=C/c2ccccc2)ccc1O [CU-26, (1E,4E)-7-(4-hydroxy-3-methoxyphenyl)-1-phenyl-1,4-heptadien-3-one] | – | 107.17 ± 0.07 | 96.83 ± 0.02 | 12.8 ± 0.14 | 72 to 74 | 37.6 | –
25 | COc1cc(CC/C=C/C(=O)/C=C/c2ccccc2)cc(OC)c1OC [CU-27, (1E,4E)-1-phenyl-7-(3,4,5-trimethoxyphenyl)-1,4-heptadien-3-one] | – | 116.1 ± 0.44 | 101.31 ± 0.03 | 38.9 ± 1.19 | – | 7.02 | –
